Source: the supplement of paper PMC11061612

Tests used:
[1] = compound: Cc1cc2ncnn2cc1Nc1ncc2c(n1)n(C1CCOCC1)c(=O)n2C [AZD7648]; conditions: max 10 µM
Outline: (§1)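 Following 24 hours at 37°C and 5% CO2, cancer cell lines in 1536-well plates with 7.5 μl DMEM/F12 or RPMI and 10% FBS were dosed for 72 hours, final DMSO typically being 0.2%. CellTiter-Glo 2.0 luminescence, scaled between blank-well and DMSO-well means, gave the viability readout. Dose responses were fitted to a two-parameter logistic curve with a non-linear mixed effects model, and the single-agent IC50 was derived from this fit.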

[2] = compound: CN(CC[C@H](CSC1=CC=CC=C1)NC2=C(C=C(C=C2)S(=O)(=O)NC(=O)C3=CC=C(C=C3)N4CCC(CC4)[C@H](C5=CC=CC=C5C6=CC=C(C=C6)Cl)O)S(=O)(=O)C(F)(F)F)CCO [AZD4320]; conditions: max 1 µM
Outline: as §1

[3] = compound: COc1cccc(OCCCN)c1-c1cc(Nc2cnc(C#N)cn2)n[nH]1 [Prexasertib]; conditions: max 1 µM
Outline: as §1

[4] = compound: C[C@@H]1COCCN1C2=NC(=NC(=C2)C3(CC3)[S@](=N)(=O)C)C4=C5C=CNC5=NC=C4 [AZD6738]; conditions: max 10 µM
Outline: as §1

[5] = compound: NC1(c2ccc(-c3nc4ccn5c(=O)[nH]nc5c4cc3-c3ccccc3)cc2)CCC1 [MK-2206]; conditions: max 10 µM
Outline: as §1

[6] = compound: C[C@@H](Nc1cc(F)cc(F)c1)c1cc(C(=O)N(C)C)cc2c(=O)cc(N3CCOCC3)oc12 [AZD8186]; conditions: max 3 µM
Outline: as §1

[7] = compound: C=CCn1c(=O)c2cnc(Nc3ccc(N4CCN(C)CC4)cc3)nc2n1-c1cccc(C(C)(C)O)n1 [AZD1775]; conditions: max 3 µM
Outline: as §1

[8] = compound: COc1cccc2c1C(=O)c1c(O)c3c(c(O)c1C2=O)C[C@@](O)(C(=O)CO)C[C@@H]3O[C@H]1C[C@H](N)[C@H](O)[C@H](C)O1 [Doxorubicin]; conditions: max 1 µM
Outline: as §1

[9] = compound: CS(=O)(=O)CCNCc1ccc(-c2ccc3ncnc(Nc4ccc(OCc5cccc(F)c5)c(Cl)c4)c3c2)o1 [Lapatinib]; conditions: max 10 µM
Outline: as §1

[10] = compound: C[C@@H](Oc1cc(-c2cnn(C3CCNCC3)c2)cnc1N)c1c(Cl)ccc(F)c1Cl [Crizotinib]; conditions: max 10 µM
Outline: as §1

[11] = compound: Cc1c2c(nn1C)CSCc1cc(n(C)n1)CSc1cc(c3ccccc3c1)OCCCc1c(C(=O)O)n(C)c3c-2c(Cl)ccc13 [AZD5991]; conditions: max 1 µM
Outline: as §1

[12] = compound: Cn1cnc2c(F)c(Nc3ccc(Br)cc3Cl)c(C(=O)NOCCO)cc21 [Selumetinib]; conditions: max 10 µM
Outline: as §1

[13] = compound: C[C@@H](c1ccc2nccn2c1)n1nnc2ncc(-c3cnn(C)c3)nc21 [Savolitinib]; conditions: max 1 µM
Outline: as §1

[14] = compound: COc1nnc2ccc(N3CCC(c4ccc(OCCN5CCN(C)C(=O)[C@H]5C)cc4)CC3)nn12 [AZD5153]; conditions: max 1 µM
Outline: as §1

[15] = compound: CC1=CN2[C@@H](C1)C=NC3=CC(=C(C=C3C2=O)OC)OCCCCCOC4=C(C=C5C(=C4)N=C[C@@H]6CC(=CN6C5=O)C)OC [SG3199]; conditions: max 0.001 µM
Outline: as §1

[16] = compound: C1CN(CCC1(C(=O)N[C@@H](CCO)C2=CC=C(C=C2)Cl)N)C3=NC=NC4=C3C=CN4 [Capivasertib]; conditions: max 10 µM
Outline: as §1

[17] = compound: CC1(C)CCC(CN2CCN(c3ccc(C(=O)NS(=O)(=O)c4ccc(NCC5CCOCC5)c([N+](=O)[O-])c4)c(Oc4cnc5[nH]ccc5c4)c3)CC2)=C(c2ccc(Cl)cc2)C1 [Venetoclax]; conditions: max 1 µM
Outline: as §1

[18] = compound: Cc1nc(-c2cn3c(n2)-c2ccc(-c4cnn(C(C)(C)C(N)=O)c4)cc2OCC3)n(C(C)C)n1 [Taselisib]; conditions: max 10 µM
Outline: as §1

[19] = compound: CCc1c2c(nc3ccc(O)cc13)-c1cc3c(c(=O)n1C2)COC(=O)[C@]3(O)CC [SN-38]; conditions: max 0.3 µM
Outline: as §1

[20] = compound: COc1cc2ncnc(Nc3ccc(F)c(Cl)c3)c2cc1OCCCN1CCOCC1 [Gefitinib]; conditions: max 10 µM
Outline: as §1

[21] = compound: O=C(c1cc(Cc2n[nH]c(=O)c3ccccc23)ccc1F)N1CCN(C(=O)C2CC2)CC1 [Olaparib]; conditions: max 10 µM
Outline: as §1

[22] = compound: CC(C)n1c(=O)n(C)c2cnc3cc(F)c(-c4ccc(OCCCN5CCCCC5)nc4)cc3c21 [AZD1390]; conditions: max 0.3 µM
Outline: as §1

[23] = compound: CN(C)CCCOc1ccc(-c2ccc3ncc4c(c3c2)n(C2CCOCC2)c(=O)n4C)cn1 [AZD0156]; conditions: max 3 µM
Outline: as §1

[24] = compound: CC(=O)Nc1cccc(-n2c(=O)n(C3CC3)c(=O)c3c(Nc4ccc(I)cc4F)n(C)c(=O)c(C)c32)c1 [Trametinib]; conditions: max 1 µM
Outline: as §1

[25] = compound: CC1=C(C(=CC=C1)Cl)NC(=O)C2=CN=C(S2)NC3=CC(=NC(=N3)C)N4CCN(CC4)CCO [Dasatinib]; conditions: max 2 µM
Outline: as §1

[26] = compound: CCN(CCO)CCCOc1ccc2c(Nc3cc(CC(=O)Nc4cccc(F)c4)[nH]n3)ncnc2c1 [AZD2811]; conditions: max 1 µM
Outline: as §1

[27] = compound: COc1cc(Nc2ncc3c(n2)-c2ccc(Cl)cc2C(c2c(F)cccc2OC)=NC3)ccc1C(=O)O [Alisertib]; conditions: max 10 µM
Outline: as §1

[28] = compound: CC(=O)c1c(C)c2cnc(Nc3ccc(N4CCNCC4)cn3)nc2n(C2CCCC2)c1=O [Palbociclib]; conditions: max 10 µM
Outline: as §1

Cell Line | IC50, cell viability 72 h [1] [nM] | IC50, cell viability 72 h [2] [nM] | IC50, cell viability 72 h [3] [nM] | IC50, cell viability 72 h [4] [nM] | IC50, cell viability 72 h [5] [nM] | IC50, cell viability 72 h [6] [nM] | IC50, cell viability 72 h [7] [nM] | IC50, cell viability 72 h [8] [nM] | IC50, cell viability 72 h [9] [nM] | IC50, cell viability 72 h [10] [nM] | IC50, cell viability 72 h [11] [nM] | IC50, cell viability 72 h [12] [nM] | IC50, cell viability 72 h [13] [nM] | IC50, cell viability 72 h [14] [nM] | IC50, cell viability 72 h [15] [nM] | IC50, cell viability 72 h [16] [nM] | IC50, cell viability 72 h [17] [nM] | IC50, cell viability 72 h [18] [nM] | IC50, cell viability 72 h [19] [nM] | IC50, cell viability 72 h [20] [nM] | IC50, cell viability 72 h [21] [nM] | IC50, cell viability 72 h [22] [nM] | IC50, cell viability 72 h [23] [nM] | IC50, cell viability 72 h [24] [nM] | IC50, cell viability 72 h [25] [nM] | IC50, cell viability 72 h [26] [nM] | IC50, cell viability 72 h [27] [nM] | IC50, cell viability 72 h [28] [nM]
ETK-1 (Biliary Tract Carcinoma) | > 10000 | > 1000 | 563 | 6850 | > 10000 | > 3000 | 1020 | > 1000 | 6780 | > 10000 | > 1000 | > 10000 | > 1000 | > 1000 | > 1 | > 10000 | > 1000 | 3330 | 227 | > 10000 | > 10000 | > 300 | > 3000 | > 1000 | 580 | > 1000 | 6570 | > 10000
HCC1143 (Breast Carcinoma) | > 10000 | > 1000 | 19 | 2870 | > 10000 | > 3000 | 1050 | > 1000 | > 10000 | > 10000 | > 1000 | > 10000 | > 1000 | > 1000 | > 1 | > 10000 | > 1000 | 5950 | 237 | > 10000 | > 10000 | > 300 | > 3000 | > 1000 | > 2000 | > 1000 | > 10000 | > 10000
HOP-92 (Non-Small Cell Lung Carcinoma) | > 10000 | 140 | 134 | > 10000 | > 10000 | > 3000 | > 3000 | > 1000 | > 10000 | > 10000 | > 1000 | > 10000 | > 1000 | > 1000 | > 1 | > 10000 | > 1000 | 6710 | 109 | > 10000 | > 10000 | > 300 | > 3000 | 139 | > 2000 | > 1000 | > 10000 | > 10000
HuO9 (Osteosarcoma) | > 10000 | 171 | 46.3 | 1160 | 8020 | > 3000 | 307 | 322 | > 10000 | 7070 | 64.2 | > 10000 | > 1000 | 275 | > 1 | > 10000 | > 1000 | 511 | 3.15 | > 10000 | > 10000 | > 300 | > 3000 | > 1000 | > 2000 | > 1000 | 5740 | > 10000
JHH-6 (Hepatocellular Carcinoma) | > 10000 | > 1000 | > 1000 | > 10000 | – | > 3000 | > 3000 | > 1000 | > 10000 | > 10000 | > 1000 | > 10000 | > 1000 | 922 | > 1 | > 10000 | > 1000 | > 10000 | > 300 | > 10000 | > 10000 | > 300 | > 3000 | > 1000 | > 2000 | > 1000 | > 10000 | > 10000
KG-1 (Acute Myeloid Leukemia) | > 10000 | 96.9 | 45.8 | 5630 | – | > 3000 | 662 | > 1000 | > 10000 | > 10000 | 83.7 | > 10000 | > 1000 | 216 | > 1 | > 10000 | 550 | > 10000 | 13.2 | > 10000 | > 10000 | > 300 | > 3000 | > 1000 | > 2000 | > 1000 | 774 | > 10000
MCF7 (Breast Carcinoma) | > 10000 | > 1000 | > 1000 | 6710 | 8680 | > 3000 | > 3000 | > 1000 | > 10000 | > 10000 | 838 | > 10000 | > 1000 | 343 | > 1 | 8440 | > 1000 | 1390 | 53.2 | > 10000 | > 10000 | > 300 | > 3000 | > 1000 | > 2000 | > 1000 | > 10000 | > 10000
